In this assay the target is p38 (Homo sapiens, UniProt Q16539). Kind of assay: Protein Kinase Assay (33P incorporation from γ-[33P]ATP into GST-ATF-2). The assay is classed as biochemical. The settings on record: 2 nM p38, preincubated 20 min at 30° C.; 10 uM cold ATP, 2 uM GST-ATF2, 70 min; read-out: ACT. (Activity), IC50 category in Protein Kinase Assay. On the procedure: Protein Kinase Assay. The protein kinase activity of p38 was determined by measuring the incorporation of ^33P from γ-[^33P]ATP into the GST-ATF-2 substrate, amino acids 19-96 (Upstate, N.Y. USA). The reactions were carried out in a final volume of 50 μL of 24 mM Tris-HCl buffer, pH 7.5, containing 13 mM MgCl2, 12% Glycerol, 2% DMSO, 2 mM DTT, […] of γ-[^33P]ATP (1000 Ci/mmol; 1 Ci=37 GBq) (GE Healthcare, Piscataway, N.J.), 10 uM cold ATP (GE Healthcare, Piscataway, N.J.), and 2 uM GST-ATF2. Compounds were preincubated with 2 nM p38 for 20 min at 30° C.; the reactions were initiated by the addition of GST-ATF2 and ATP and incubated for 70 min at 30° C. before being stopped by the addition of 10 μL of 600 mM phosphoric acid. The phosphorylated substrate was captured on phosphocellulose 96-well plate (Millipore MAPHNOB 10), washed with 100 mM phosphoric acid, and counted in a BeckmenCoulter LS6500 liquid scintillation counter. […] (Activity).
p38, sequence (Q16539 whole entry, the tested form may be a part): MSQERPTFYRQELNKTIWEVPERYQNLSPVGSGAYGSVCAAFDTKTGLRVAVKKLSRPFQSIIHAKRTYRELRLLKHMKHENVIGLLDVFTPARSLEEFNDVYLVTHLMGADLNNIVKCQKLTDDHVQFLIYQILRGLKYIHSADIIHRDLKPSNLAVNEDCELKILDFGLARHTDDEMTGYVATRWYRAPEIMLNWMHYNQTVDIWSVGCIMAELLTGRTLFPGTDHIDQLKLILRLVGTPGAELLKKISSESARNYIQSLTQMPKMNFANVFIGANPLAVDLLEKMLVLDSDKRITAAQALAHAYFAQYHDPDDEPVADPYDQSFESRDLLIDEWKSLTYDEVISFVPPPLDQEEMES

Consider `Cc1ccc(NC(=O)Nc2sc(C(C)(C)C)cc2C(=O)N2CCN(C)C(=O)C2(C)C)cc1-c1ccc(C(C)(C)O)nc1` [1-(5-tert-butyl-3-(2,2,4-trimethyl-3-oxopiperazine-1-carbonyl)thiophen-2-yl)-3-(3-(6-(2-hydroxypropan-2-yl)pyridin-3-yl)-4-methylphenyl)urea], for which the IC50 is under 100 nM.
As for `COCCOc1ccc(-c2cc(NC(=O)Nc3sc(C(C)(C)C)cc3C(=O)N3CCN(C)C(=O)C3(C)C)ccc2C)cn1` [1-(5-tert-butyl-3-(2,2,4-trimethyl-3-oxopiperazine-1-carbonyl)thiophen-2-yl)-3-(3-(6-(2-methoxyethoxy)pyridin-3-yl)-4-methylphenyl)urea], the figure is under 100 nM; as for `CCN(CC)Cc1ccc(-c2cc(NC(=O)Nc3sc(C(C)(C)C)cc3C(=O)N3CCN(C)C(=O)C3(C)C)ccc2C)cn1` [1-(5-tert-butyl-3-(2,2,4-trimethyl-3-oxopiperazine-1-carbonyl)thiophen-2-yl)-3-(3-(6-((diethylamino)methyl)pyridin-3-yl)-4-methylphenyl)urea], under 100 nM.
With `CCOc1ccc(-c2cc(NC(=O)Nc3sc(C(C)(C)C)cc3C(=O)N3CCN(C)C(=O)C3(C)C)ccc2C)cn1` [1-(5-tert-butyl-3-(2,2,4-trimethyl-3-oxopiperazine-1-carbonyl)thiophen-2-yl)-3-(3-(6-ethoxypyridin-3-yl)-4-methylphenyl)urea], the concentration for half-maximal inhibition (IC50) is under 100 nM.
As for `CCc1ccc(-c2cc(NC(=O)Nc3sc(C(C)(C)C)cc3C(=O)N3CCN(C)C(=O)C3(C)C)ccc2C)cn1` [1-(5-tert-butyl-3-(2,2,4-trimethyl-3-oxopiperazine-1-carbonyl)thiophen-2-yl)-3-(3-(6-ethylpyridin-3-yl)-4-methylphenyl)urea], the figure is under 100 nM; as for `CCc1ccc(-c2cc(NC(=O)Nc3sc(C(C)(C)C)cc3C(=O)N3CCN(C)C(=O)C3(C)C)cc(F)c2C)cn1` [1-(5-tert-butyl-3-(2,2,4-trimethyl-3-oxopiperazine-1-carbonyl)thiophen-2-yl)-3-(3-(6-ethylpyridin-3-yl)-5-fluoro-4-methylphenyl)urea], under 100 nM; as for `Cc1ccc(NC(=O)Nc2sc(C(C)(C)C)cc2C(=O)N2CCN(C)C(=O)C2(C)C)cc1-c1ccc(OC(C)C)nc1` [1-(5-tert-butyl-3-(2,2,4-trimethyl-3-oxopiperazine-1-carbonyl)thiophen-2-yl)-3-(3-(6-isopropoxypyridin-3-yl)-4-methylphenyl)urea], under 100 nM.
In the case of `COc1ccc(-c2cc(NC(=O)Nc3sc(C(C)(C)C)cc3C(=O)N3CCN(C)C(=O)C3(C)C)ccc2C)cn1` [1-(5-tert-butyl-3-(2,2,4-trimethyl-3-oxopiperazine-1-carbonyl)thiophen-2-yl)-3-(3-(6-methoxypyridin-3-yl)-4-methylphenyl)urea] it was under 100 nM.
In the case of `COc1ccc(-c2cc(NC(=O)Nc3sc(C(C)(C)C)cc3C(=O)N3CCN(C)C(=O)C3(C)C)cc(F)c2C)cn1` [1-(5-tert-butyl-3-(2,2,4-trimethyl-3-oxopiperazine-1-carbonyl)thiophen-2-yl)-3-(3-fluoro-5-(6-methoxypyridin-3-yl)-4-methylphenyl)urea] it was under 100 nM; in that of `Cc1ccc(NC(=O)Nc2sc(C(C)(C)C)cc2C(=O)N2CCN(C)C(=O)C2(C)C)cc1N1C(=O)CN(C)C1=O` [1-(5-tert-butyl-3-(2,2,4-trimethyl-3-oxopiperazine-1-carbonyl)thiophen-2-yl)-3-(4-methyl-3-(3-methyl-2,5-dioxoimidazolidin-1-yl)phenyl)urea], under 100 nM.
For the compound `Cc1ccc(NC(=O)Nc2sc(C(C)(C)C)cc2C(=O)N2CCN(C)C(=O)C2(C)C)cc1-c1ccc(CN2CCOCC2)cn1` [1-(5-tert-butyl-3-(2,2,4-trimethyl-3-oxopiperazine-1-carbonyl)thiophen-2-yl)-3-(4-methyl-3-(5-(morpholinomethyl)pyridin-2-yl)phenyl)urea], the IC50 was under 100 nM.
Consider `Cc1ccc(NC(=O)Nc2sc(C(C)(C)C)cc2C(=O)N2CCN(C)C(=O)C2(C)C)cc1-c1ccc(C(C)N2CCOCC2)nc1` (centres unmarked) [1-(5-tert-butyl-3-(2,2,4-trimethyl-3-oxopiperazine-1-carbonyl)thiophen-2-yl)-3-(4-methyl-3-(6-(1-morpholinoethyl)pyridin-3-yl)phenyl)urea], for which the half-inhibitory concentration (IC50) is under 100 nM.
`Cc1ccc(NC(=O)Nc2sc(C(C)(C)C)cc2C(=O)N2CCN(C)C(=O)C2(C)C)cc1-c1ccc(N2CCN(C)CC2)nc1` [1-(5-tert-butyl-3-(2,2,4-trimethyl-3-oxopiperazine-1-carbonyl)thiophen-2-yl)-3-(4-methyl-3-(6-(4-methylpiperazin-1-yl)pyridin-3-yl)phenyl)urea]: the IC50 was under 100 nM.
In the case of `Cc1nnc(-c2ccc(-c3cc(NC(=O)Nc4sc(C(C)(C)C)cc4C(=O)N4CCN(C)C(=O)C4(C)C)ccc3C)cn2)o1` [1-(5-tert-butyl-3-(2,2,4-trimethyl-3-oxopiperazine-1-carbonyl)thiophen-2-yl)-3-(4-methyl-3-(6-(5-methyl-1,3,4-oxadiazol-2-yl)pyridin-3-yl)phenyl)urea] it was under 100 nM; in that of `Cc1ccc(NC(=O)Nc2sc(C(C)(C)C)cc2C(=O)N2CCN(C)C(=O)C2(C)C)cc1-c1ccc(CN2CCN(C)CC2)nc1` [1-(5-tert-butyl-3-(2,2,4-trimethyl-3-oxopiperazine-1-carbonyl)thiophen-2-yl)-3-(4-methyl-3-(6-((4-methylpiperazin-1-yl)methyl)pyridin-3-yl)phenyl)urea], under 100 nM.
In the case of `Cc1ccc(NC(=O)Nc2sc(C(C)(C)C)cc2C(=O)N2CCN(C)C(=O)C2(C)C)cc1-c1ccc(C(=O)N2CCOCC2)nc1` [1-(5-tert-butyl-3-(2,2,4-trimethyl-3-oxopiperazine-1-carbonyl)thiophen-2-yl)-3-(4-methyl-3-(6-(morpholine-4-carbonyl)pyridin-3-yl)phenyl)urea] it was under 100 nM; in that of `Cc1ccc(NC(=O)Nc2sc(C(C)(C)C)cc2C(=O)N2CCN(C)C(=O)C2(C)C)cc1-c1ccc(CN2CCOCC2)nc1` [1-(5-tert-butyl-3-(2,2,4-trimethyl-3-oxopiperazine-1-carbonyl)thiophen-2-yl)-3-(4-methyl-3-(6-(morpholinomethyl)pyridin-3-yl)phenyl)urea], under 100 nM; in that of `Cc1ccc(NC(=O)Nc2sc(C(C)(C)C)cc2C(=O)N2CCN(C)C(=O)C2(C)C)cc1-c1ccc(CN2CCCC2)nc1` [1-(5-tert-butyl-3-(2,2,4-trimethyl-3-oxopiperazine-1-carbonyl)thiophen-2-yl)-3-(4-methyl-3-(6-(pyrrolidin-1-ylmethyl)pyridin-3-yl)phenyl)urea], under 100 nM.
Take `Cc1ccc(-c2cc(NC(=O)Nc3sc(C(C)(C)C)cc3C(=O)N3CCN(C)C(=O)C3(C)C)ccc2C)cn1` [1-(5-tert-butyl-3-(2,2,4-trimethyl-3-oxopiperazine-1-carbonyl)thiophen-2-yl)-3-(4-methyl-3-(6-methylpyridin-3-yl)phenyl)urea]: the IC50 was under 100 nM.
For the compound `Cc1ccc(NC(=O)Nc2sc(C(C)(C)C)cc2C(=O)N2CCN(C)C(=O)C2(C)C)cc1-c1ccc(N2CCOCC2)nc1` [1-(5-tert-butyl-3-(2,2,4-trimethyl-3-oxopiperazine-1-carbonyl)thiophen-2-yl)-3-(4-methyl-3-(6-morpholinopyridin-3-yl)phenyl)urea], the IC50 was under 100 nM.
As for `Cc1ncc(NC(=O)Nc2sc(C(C)(C)C)cc2C(=O)N2CCN(C)C(=O)C2(C)C)cc1C#CC1CC1` [1-(5-tert-butyl-3-(2,2,4-trimethyl-3-oxopiperazine-1-carbonyl)thiophen-2-yl)-3-(5-(cyclopropylethynyl)-6-methylpyridin-3-yl)urea], the IC50 is under 100 nM.
Turning to `Cc1ccc(NC(=O)Nc2oc(C(C)(C)C)cc2C(=O)N2CCNC(=O)C2(C)C)cc1-c1ccncc1` [1-(5-tert-butyl-3-(2,2-dimethyl-3-oxopiperazine-1-carbonyl)furan-2-yl)-3-(4-methyl-3-(pyridin-4-yl)phenyl)urea], the IC50 was under 100 nM.
In the case of `COc1ccc(-c2cc(NC(=O)Nc3sc(C(C)(C)C)cc3C(=O)N3CCNC(=O)C3(C)C)c(F)cc2C)cn1` [1-(5-tert-butyl-3-(2,2-dimethyl-3-oxopiperazine-1-carbonyl)thiophen-2-yl)-3-(2-fluoro-5-(6-methoxypyridin-3-yl)-4-methylphenyl)urea], the IC50 was under 100 nM.
Turning to `Cc1c(NC(=O)Nc2sc(C(C)(C)C)cc2C(=O)N2CCNC(=O)C2(C)C)cccc1-c1ccc(N2CCOCC2)nc1` [1-(5-tert-butyl-3-(2,2-dimethyl-3-oxopiperazine-1-carbonyl)thiophen-2-yl)-3-(2-methyl-3-(6-morpholinopyridin-3-yl)phenyl)urea], the IC50 is under 100 nM.
As for `Cc1ccc(-c2ccc(N3CCOCC3)nc2)cc1NC(=O)Nc1sc(C(C)(C)C)cc1C(=O)N1CCNC(=O)C1(C)C` [1-(5-tert-butyl-3-(2,2-dimethyl-3-oxopiperazine-1-carbonyl)thiophen-2-yl)-3-(2-methyl-5-(6-morpholinopyridin-3-yl)phenyl)urea], the figure is under 100 nM; as for `Cc1ncc(NC(=O)Nc2sc(C(C)(C)C)cc2C(=O)N2CCNC(=O)C2(C)C)cc1-c1ccc(N2CCOCC2)nc1` [1-(5-tert-butyl-3-(2,2-dimethyl-3-oxopiperazine-1-carbonyl)thiophen-2-yl)-3-(2-methyl-6′-morpholino-3,3′-bipyridin-5-yl)urea], under 100 nM.

As usually defined, the IC50 is the point on the concentration scale where inhibition reaches its midpoint.

The values are drawn from US20100041642A1, “UREA INHIBITORS OF MAP KINASES” (LOCUS PHARMACEUTICALS, INC., priority 2008, published 2010).
